The results in this text go back to ChEMBL document CHEMBL5543067, “Advances in nitric oxide regulators for the treatment of ischemic stroke” (Eur J Med Chem, 2023).

In brackets after ≈: the same amount, converted by molar mass.

Data set [1] concerns Platelet. Description: Inhibition of ADP-induced platelet aggregation (unknown origin). It is filed as functional, cell-based.
A short description of data set [2]: Water solubility at pH 7.4. The class given is physicochemical.
Data set [3] in a line: Neuroprotective activity in rat hippocampal neuron cells assessed as NMDA-induced cGMP production. It is filed as functional, cell-based. The following applies: Hippocampal neurone.
Data set [4] concerns the target T1, Nitric oxide synthase, inducible (Mus musculus, UniProt P29477).
T1 sequence (P29477 whole entry): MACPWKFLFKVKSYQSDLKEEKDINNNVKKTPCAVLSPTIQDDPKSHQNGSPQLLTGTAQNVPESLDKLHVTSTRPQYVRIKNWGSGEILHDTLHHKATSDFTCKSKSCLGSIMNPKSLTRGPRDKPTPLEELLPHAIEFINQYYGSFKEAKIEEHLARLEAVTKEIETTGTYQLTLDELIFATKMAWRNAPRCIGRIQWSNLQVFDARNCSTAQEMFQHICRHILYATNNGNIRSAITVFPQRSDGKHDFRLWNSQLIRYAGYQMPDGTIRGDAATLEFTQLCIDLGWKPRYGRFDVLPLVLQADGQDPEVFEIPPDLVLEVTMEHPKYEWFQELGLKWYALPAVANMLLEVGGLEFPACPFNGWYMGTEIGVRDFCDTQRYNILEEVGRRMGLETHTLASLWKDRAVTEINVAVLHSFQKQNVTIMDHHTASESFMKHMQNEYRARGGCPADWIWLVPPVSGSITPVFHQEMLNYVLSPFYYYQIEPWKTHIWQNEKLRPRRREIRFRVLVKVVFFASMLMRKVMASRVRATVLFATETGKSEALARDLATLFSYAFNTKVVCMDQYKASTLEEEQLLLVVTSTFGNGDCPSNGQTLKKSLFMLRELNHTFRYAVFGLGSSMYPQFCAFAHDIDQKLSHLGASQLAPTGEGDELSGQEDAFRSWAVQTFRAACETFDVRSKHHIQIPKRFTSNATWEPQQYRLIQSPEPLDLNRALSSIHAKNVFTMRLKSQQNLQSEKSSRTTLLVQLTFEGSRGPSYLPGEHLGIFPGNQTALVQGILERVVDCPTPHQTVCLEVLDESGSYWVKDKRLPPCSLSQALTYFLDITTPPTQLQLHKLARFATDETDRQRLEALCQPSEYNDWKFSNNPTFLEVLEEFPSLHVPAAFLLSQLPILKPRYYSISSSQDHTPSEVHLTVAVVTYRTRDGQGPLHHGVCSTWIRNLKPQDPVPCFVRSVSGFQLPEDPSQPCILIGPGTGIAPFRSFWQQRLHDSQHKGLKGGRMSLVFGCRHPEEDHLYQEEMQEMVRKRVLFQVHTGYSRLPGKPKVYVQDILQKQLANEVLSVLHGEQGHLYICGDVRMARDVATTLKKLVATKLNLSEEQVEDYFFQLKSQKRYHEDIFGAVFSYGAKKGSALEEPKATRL
Description: Inhibition of mouse iNOS in RAW264.7 cells. It is filed as cell-based.

In data set [5] the target is Nitric oxide synthase 1 (Rattus norvegicus, UniProt P29476). In words: Inhibition of rat cerebellum nNOS. It is filed as tissue-based.
Data set [6] addresses T2, Nitric oxide synthase 3 (Homo sapiens, UniProt P29474).
T2 sequence (P29474 whole entry): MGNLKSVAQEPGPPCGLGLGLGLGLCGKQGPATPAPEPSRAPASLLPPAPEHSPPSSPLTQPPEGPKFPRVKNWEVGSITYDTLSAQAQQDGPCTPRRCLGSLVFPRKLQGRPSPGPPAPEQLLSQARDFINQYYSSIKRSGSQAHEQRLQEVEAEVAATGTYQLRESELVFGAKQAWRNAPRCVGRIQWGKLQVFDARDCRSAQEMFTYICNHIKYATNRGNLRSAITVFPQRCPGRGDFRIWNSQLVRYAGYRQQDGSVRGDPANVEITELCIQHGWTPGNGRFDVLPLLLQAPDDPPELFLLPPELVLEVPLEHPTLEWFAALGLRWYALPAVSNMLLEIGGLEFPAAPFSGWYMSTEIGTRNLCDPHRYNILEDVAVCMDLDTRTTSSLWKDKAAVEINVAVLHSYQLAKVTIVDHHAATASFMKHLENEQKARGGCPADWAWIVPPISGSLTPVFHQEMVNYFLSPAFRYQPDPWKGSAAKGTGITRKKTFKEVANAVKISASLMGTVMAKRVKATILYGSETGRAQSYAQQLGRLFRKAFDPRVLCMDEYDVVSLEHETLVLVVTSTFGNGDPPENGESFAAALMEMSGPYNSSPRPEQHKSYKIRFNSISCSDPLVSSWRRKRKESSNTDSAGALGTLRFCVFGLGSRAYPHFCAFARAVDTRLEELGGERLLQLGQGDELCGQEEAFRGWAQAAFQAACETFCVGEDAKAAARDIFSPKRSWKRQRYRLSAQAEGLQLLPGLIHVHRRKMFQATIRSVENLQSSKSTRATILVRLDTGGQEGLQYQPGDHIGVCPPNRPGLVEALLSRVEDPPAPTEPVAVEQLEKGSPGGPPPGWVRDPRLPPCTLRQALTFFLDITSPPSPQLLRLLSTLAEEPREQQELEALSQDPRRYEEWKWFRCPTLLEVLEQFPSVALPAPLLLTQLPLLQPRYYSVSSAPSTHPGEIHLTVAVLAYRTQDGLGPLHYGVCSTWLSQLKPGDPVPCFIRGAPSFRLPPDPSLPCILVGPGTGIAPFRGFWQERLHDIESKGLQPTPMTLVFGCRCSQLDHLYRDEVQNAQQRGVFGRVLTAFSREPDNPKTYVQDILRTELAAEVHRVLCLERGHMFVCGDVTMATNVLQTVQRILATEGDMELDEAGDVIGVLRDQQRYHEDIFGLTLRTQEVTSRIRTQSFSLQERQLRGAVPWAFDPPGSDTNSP
In words: Inhibition of human Endothelial cells eNOS. It is filed as cell-based, Endothelial cell.

Data set [7] can be described thus: Permeability of the compound across blood brain barrier at pH 7.4 at 12.5 uM incubated for 4 hrs by PAMPA assay. The class given is ADME. The following applies: read-out: permeability. In general terms: In PAMPA a lipid-coated filter parts donor from acceptor wells.
Data set [8] addresses T3, Nitric oxide synthase 1 (Homo sapiens, UniProt P29475). In words: Binding affinity to GST-tagged nNOS (unknown origin) expressed in Escherichia coli BL21 (DE3) assessed as change in enthalpy.
Data set [9] addresses T4, Nitric oxide synthase 3 (Bos taurus, UniProt P29473).
T4 sequence (P29473 whole entry): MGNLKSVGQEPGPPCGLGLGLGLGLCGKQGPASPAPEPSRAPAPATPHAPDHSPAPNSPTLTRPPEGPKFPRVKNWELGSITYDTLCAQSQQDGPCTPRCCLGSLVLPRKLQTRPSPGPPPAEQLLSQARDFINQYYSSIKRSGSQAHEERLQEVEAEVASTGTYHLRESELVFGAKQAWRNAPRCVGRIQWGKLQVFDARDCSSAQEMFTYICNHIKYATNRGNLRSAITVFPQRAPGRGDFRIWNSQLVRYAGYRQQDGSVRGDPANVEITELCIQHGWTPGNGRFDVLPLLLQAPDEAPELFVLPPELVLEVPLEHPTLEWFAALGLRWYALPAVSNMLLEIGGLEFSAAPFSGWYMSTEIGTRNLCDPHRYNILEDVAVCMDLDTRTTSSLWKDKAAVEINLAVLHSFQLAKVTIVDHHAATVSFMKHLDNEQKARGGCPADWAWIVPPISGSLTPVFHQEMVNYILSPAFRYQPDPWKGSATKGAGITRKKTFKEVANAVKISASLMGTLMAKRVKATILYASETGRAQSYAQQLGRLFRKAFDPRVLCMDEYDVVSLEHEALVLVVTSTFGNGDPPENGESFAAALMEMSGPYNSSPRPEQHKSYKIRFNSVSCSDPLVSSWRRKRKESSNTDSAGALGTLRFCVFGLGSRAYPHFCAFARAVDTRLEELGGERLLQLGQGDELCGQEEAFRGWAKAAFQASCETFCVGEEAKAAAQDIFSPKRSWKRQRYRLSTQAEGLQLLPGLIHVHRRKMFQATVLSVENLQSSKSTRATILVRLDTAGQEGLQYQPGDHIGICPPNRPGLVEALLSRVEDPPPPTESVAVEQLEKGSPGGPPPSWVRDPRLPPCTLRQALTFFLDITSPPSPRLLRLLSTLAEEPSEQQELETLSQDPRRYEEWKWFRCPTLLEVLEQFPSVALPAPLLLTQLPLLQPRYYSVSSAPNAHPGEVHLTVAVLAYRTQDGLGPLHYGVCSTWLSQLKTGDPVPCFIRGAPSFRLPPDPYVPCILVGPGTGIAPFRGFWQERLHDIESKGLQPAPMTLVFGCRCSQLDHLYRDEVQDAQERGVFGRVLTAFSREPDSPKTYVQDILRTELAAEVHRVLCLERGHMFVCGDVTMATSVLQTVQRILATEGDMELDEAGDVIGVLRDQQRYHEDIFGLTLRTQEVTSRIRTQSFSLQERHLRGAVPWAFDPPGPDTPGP
Description: Inhibition of bovine eNOS.

Data set [10] has as its target Nitric oxide synthase, inducible (Rattus norvegicus, UniProt Q06518). In words: Inhibition of rat iNOS.
The target in data set [11] is Nitric oxide synthase 1 (Mus musculus, UniProt Q9Z0J4). Description: Inhibition of mouse nNOS.
The target in data set [12] is Nitric oxide synthase, inducible (Homo sapiens, UniProt P35228). Description: Binding affinity to iNOS (unknown origin) assessed as inhibition constant.
Data set [13] has as its target T2, Nitric oxide synthase 3. Description: Binding affinity to eNOS (unknown origin) assessed as inhibition constant.
Data set [14] has as its target T3, Nitric oxide synthase 1. In words: Binding affinity to nNOS (unknown origin) assessed as inhibition constant.
The nature of data set [15]: Inhibition of NOS (unknown origin). Also noted: species or system Homo sapiens.
For data set [16], the system named is Platelet. Description: Inhibition of AA-induced platelet aggregation in New Zealand White rabbit. The class given is functional, cell-based. The following applies: Oryctolagus cuniculus.
The subject of data set [17] is Platelet. Description: Inhibition of ADP-induced platelet aggregation in New Zealand White rabbit. The following applies: Oryctolagus cuniculus. The class given is functional, cell-based.

T3 sequence (P29475 whole entry): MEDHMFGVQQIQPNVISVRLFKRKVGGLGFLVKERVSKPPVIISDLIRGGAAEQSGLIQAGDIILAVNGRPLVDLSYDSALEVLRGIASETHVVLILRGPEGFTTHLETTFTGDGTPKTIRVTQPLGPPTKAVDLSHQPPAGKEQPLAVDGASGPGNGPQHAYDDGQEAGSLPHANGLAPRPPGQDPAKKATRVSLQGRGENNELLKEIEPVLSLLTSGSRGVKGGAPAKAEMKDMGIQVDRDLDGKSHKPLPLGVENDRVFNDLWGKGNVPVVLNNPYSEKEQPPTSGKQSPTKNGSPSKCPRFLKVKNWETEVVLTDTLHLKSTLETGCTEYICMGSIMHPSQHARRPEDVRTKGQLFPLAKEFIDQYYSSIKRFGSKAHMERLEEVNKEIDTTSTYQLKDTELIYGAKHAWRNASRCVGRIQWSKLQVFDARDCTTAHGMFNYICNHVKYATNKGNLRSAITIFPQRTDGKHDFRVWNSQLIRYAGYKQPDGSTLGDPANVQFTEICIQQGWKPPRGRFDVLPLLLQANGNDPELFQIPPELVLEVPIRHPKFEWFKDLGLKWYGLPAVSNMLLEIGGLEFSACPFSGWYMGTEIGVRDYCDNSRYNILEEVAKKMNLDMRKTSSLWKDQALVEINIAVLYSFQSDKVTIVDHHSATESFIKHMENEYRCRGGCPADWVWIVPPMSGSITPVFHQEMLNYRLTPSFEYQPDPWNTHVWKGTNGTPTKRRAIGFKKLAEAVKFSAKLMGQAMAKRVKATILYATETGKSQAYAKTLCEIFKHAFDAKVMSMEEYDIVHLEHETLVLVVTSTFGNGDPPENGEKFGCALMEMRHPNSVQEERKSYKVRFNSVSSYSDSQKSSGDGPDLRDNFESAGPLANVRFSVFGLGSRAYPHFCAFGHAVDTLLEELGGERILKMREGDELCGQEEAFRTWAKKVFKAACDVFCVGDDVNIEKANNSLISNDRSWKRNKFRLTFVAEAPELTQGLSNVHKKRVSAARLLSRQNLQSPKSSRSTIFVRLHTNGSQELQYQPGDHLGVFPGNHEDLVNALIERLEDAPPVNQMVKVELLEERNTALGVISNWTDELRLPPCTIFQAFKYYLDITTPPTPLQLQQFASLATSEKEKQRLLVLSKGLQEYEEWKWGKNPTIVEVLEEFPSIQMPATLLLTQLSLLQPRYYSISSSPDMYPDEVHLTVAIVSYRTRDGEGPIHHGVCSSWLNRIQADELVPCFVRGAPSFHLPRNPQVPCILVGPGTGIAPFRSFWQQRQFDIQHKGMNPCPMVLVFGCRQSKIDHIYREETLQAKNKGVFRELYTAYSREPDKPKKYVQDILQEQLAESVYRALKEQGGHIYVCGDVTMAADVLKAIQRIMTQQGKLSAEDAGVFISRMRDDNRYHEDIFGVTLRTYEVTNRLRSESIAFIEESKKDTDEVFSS
Chain of Nitric oxide synthase 1 (Rattus norvegicus, UniProt P29476) (P29476 whole entry): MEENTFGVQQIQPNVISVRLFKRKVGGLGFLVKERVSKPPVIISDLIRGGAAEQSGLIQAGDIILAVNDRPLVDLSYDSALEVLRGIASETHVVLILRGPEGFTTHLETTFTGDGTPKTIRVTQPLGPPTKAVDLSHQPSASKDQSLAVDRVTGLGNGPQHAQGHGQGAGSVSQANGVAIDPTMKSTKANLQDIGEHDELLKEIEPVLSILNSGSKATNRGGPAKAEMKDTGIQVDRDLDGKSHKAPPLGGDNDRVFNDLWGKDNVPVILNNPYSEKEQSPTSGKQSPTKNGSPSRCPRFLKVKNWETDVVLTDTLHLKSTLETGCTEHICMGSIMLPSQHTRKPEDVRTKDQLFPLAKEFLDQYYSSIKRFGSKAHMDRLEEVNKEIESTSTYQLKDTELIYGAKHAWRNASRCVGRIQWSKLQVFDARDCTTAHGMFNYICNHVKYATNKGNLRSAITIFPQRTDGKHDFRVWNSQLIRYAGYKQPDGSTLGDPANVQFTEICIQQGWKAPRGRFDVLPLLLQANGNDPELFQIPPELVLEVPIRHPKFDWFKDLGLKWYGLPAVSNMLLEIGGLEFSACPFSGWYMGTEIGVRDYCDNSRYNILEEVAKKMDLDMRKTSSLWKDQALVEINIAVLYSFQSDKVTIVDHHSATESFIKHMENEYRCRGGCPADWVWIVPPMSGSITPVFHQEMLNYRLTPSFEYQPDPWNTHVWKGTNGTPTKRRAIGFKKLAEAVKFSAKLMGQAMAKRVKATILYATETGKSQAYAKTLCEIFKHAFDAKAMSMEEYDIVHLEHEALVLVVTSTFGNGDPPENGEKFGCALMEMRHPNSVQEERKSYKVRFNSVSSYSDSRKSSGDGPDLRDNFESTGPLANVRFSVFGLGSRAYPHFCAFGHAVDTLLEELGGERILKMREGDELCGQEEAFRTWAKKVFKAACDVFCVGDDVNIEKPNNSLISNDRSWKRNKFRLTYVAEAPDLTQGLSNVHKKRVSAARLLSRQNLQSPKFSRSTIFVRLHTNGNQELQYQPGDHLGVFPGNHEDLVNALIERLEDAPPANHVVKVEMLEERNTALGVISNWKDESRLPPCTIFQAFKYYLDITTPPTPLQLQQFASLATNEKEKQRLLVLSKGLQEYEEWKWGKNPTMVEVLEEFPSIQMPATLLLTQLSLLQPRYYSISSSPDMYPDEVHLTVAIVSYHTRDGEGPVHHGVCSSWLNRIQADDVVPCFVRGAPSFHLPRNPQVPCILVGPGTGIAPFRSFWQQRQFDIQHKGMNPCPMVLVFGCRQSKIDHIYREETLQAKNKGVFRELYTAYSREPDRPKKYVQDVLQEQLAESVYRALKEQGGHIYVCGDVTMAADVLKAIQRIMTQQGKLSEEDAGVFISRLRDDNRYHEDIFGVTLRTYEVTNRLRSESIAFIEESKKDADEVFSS
Chain of Nitric oxide synthase, inducible (Homo sapiens, UniProt P35228) (P35228 whole entry): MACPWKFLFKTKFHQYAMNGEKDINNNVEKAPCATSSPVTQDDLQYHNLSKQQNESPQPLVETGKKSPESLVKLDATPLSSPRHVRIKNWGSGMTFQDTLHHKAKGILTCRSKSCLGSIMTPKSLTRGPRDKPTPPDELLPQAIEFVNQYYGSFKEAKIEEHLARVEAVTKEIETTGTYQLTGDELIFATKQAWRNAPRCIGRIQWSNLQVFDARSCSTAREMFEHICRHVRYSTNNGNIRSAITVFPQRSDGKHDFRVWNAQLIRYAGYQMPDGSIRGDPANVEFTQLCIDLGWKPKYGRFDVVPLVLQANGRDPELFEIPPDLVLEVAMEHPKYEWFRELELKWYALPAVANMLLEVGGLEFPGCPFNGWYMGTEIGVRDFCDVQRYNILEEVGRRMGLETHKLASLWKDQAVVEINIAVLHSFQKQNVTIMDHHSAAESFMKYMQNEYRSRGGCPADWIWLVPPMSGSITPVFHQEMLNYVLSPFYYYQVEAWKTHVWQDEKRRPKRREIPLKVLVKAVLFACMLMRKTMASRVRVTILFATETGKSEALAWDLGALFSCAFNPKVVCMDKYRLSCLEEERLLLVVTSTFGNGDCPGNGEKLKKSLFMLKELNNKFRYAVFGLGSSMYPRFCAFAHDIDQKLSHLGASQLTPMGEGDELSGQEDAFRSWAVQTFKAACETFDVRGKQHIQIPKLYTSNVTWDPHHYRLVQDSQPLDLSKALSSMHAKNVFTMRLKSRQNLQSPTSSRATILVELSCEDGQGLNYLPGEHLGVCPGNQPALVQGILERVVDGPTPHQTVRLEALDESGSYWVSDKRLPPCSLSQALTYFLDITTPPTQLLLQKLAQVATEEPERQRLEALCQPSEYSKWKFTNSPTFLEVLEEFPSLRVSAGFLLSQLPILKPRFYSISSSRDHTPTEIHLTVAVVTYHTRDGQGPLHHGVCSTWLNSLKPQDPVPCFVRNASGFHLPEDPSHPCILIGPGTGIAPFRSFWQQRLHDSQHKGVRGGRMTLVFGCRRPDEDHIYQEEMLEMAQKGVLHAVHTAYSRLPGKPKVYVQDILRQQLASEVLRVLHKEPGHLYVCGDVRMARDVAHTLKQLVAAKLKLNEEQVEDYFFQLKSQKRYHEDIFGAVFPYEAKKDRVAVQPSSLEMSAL

For `CCCCC(OC(C)=O)c1ccccc1C(=O)O[C@H]1CO[C@H]2[C@@H]1OC[C@H]2OC(=O)NCCO[N+](=O)[O-]` (stereo partly specified), the IC50 (commonly the concentration needed to halve the response being measured) with Platelet [1] is 0.44 µM. In data set [2], the concentration in solution (solubility) was 2.13 µM (≈ 1.09 µg/mL).
In the case of `Oc1c(Cl)cc(Cl)cc1CNc1ccc2nn[nH]c2c1`, in [3], the IC50 was determined as 2.7 µM.
In the case of `CN1CCc2ccc(NC(=N)c3cccs3)cc2C1`, the IC50 in [4] was found to be 5 µM; on Nitric oxide synthase 1 [5], 0.08 µM; against Nitric oxide synthase 3 [6], 24 µM.
Regarding `COC(=O)C[C@H](NC(=O)[C@@H](C)NCCC1CCCCC1)C(=O)N[C@H](C)C(=O)N[C@@H](C(=O)O)C(C)C`, the Papp at 4 h, 12.5 µM in data set [7] came out at 6.07 ×10⁻⁶ cm/s. Further, the deltaH on Nitric oxide synthase 1 [8] was -1.67 kcal/mol.
In the case of `FC(F)(F)c1ccccc1-n1ccnc1`, the IC50 at Nitric oxide synthase 3 [9] was found to be 1060 µM; in data set [10] it was 27 µM; against Nitric oxide synthase 1 [11], 28.2 µM.
Turning to `N=C(N)NN` [PIMAGEDINE], the values for the Ki (in [12]; on Nitric oxide synthase 3 [13]; at Nitric oxide synthase 1 [14]) were 16 µM, more than 8000 µM and 830 µM, respectively.
As for `O=[N+]([O-])c1cccc2cn[nH]c12` [7-NITROINDAZOLE], the midpoint of inhibition in data set [15], the IC50, lay at 0.71 µM.
For `N=C(Nc1ccc2c(c1)CNCC2)c1cccs1`, the IC50 stood at 5.5 µM in data set [4], 0.05 µM against Nitric oxide synthase 1 [5] and 10 µM against Nitric oxide synthase 3 [6].
Compound `COC(=O)[C@@H](N)CCCNC(=N)N[N+](=O)[O-]` [L-NAME] showed a half-inhibitory concentration (IC50) in [15] of 70 µM.
Take `Cc1nc(C)c(COC(=O)c2cccc(OCCCCO[N+](=O)[O-])c2)nc1C`: the IC50 in the data set on Platelet [16] stood at 0.556 µM; in the data set on Platelet [17], 0.734 µM.
